What was measured:
rats [1] = assay: Core body temperature; format: in vivo, rat; conditions: 10 mg/kg
Method: Core Body Temperature: Following two days of habituation to the measurement method, the body temperature was measured on study day for baseline values and then again post-dosing in the time points indicated in the figure. Body temperature was measured using a probe gently inserted into the animal anus using a corn oil lubricant (C8267, Sigma-Aldrich, IL).

humans = conditions: Rowbotham 2011; cited from earlier work
rats [2] = assay: Hot plate (53° C.); format: in vivo, rat; conditions: 10 mg/kg PO, 2 and 4 hours post-dose
Method: Hot Plate: Animals were placed on hot plate analgesia meter (IITC Life Science Inc., CA, USA) set to 53±1° C., and the time until the first escape response was observed was recorded. A response was considered when the animals lifted or licked their leg or performed kicking behavior.

CHO-K1 cells = assay: In vitro micronucleus; format: cell-based; conditions: Plate 2 without S9, 3 hours
Method: (§1) The micronucleus assay was performed according to the regulatory guidelines. In brief, CHO-K1 cells were plated at 10000 cells/well in 3 plates and incubated In CHO-K1 growth medium (containing F12K, 10% FBS and 1% PS) overnight.
(§2) As a control for the S9 treatment, plate No. 1, cells were treated with cyclophosphamide as a positive control, for 3 hours. For plate No. 2, without S9 treatment, cells were treated with mitomycin C as a positive control, compounds for 3 hours, and for plate No. 3, without S9 treatment, cells were treated with bleomycin sulfate as a positive control continuously for 24 hours.
(§3) On the following day, 6 μg/mL of cytochalasin B were added to each well and plates were further incubated overnight. In the day after medium was replaced with a combined 10 μg/mL Hoechst dye solution and 0.5 μM calcein-AM in 100 μL warm DPBS for 30 minutes and the plates were scanned using CQ1 high-content analysis system.

In vitro micronucleus = format: cell-based; conditions: hamster, cho-k1 cells; Plate 2 without S9, 3 hours; read-out: Cytotoxicity (%) Absolute EC50
Method: as §1, §2, §3

hKv7.3/5 = biological target: T1, hKv7.3/5 (Homo sapiens, UniProt O43525+Q9NR82); conditions: positive control; read-out: Known IC50, Kv7.3/5; cited from earlier work
T1 construct: expressed in transfected cells; host or cells: CHO
T1 sequence (O43525 whole entry): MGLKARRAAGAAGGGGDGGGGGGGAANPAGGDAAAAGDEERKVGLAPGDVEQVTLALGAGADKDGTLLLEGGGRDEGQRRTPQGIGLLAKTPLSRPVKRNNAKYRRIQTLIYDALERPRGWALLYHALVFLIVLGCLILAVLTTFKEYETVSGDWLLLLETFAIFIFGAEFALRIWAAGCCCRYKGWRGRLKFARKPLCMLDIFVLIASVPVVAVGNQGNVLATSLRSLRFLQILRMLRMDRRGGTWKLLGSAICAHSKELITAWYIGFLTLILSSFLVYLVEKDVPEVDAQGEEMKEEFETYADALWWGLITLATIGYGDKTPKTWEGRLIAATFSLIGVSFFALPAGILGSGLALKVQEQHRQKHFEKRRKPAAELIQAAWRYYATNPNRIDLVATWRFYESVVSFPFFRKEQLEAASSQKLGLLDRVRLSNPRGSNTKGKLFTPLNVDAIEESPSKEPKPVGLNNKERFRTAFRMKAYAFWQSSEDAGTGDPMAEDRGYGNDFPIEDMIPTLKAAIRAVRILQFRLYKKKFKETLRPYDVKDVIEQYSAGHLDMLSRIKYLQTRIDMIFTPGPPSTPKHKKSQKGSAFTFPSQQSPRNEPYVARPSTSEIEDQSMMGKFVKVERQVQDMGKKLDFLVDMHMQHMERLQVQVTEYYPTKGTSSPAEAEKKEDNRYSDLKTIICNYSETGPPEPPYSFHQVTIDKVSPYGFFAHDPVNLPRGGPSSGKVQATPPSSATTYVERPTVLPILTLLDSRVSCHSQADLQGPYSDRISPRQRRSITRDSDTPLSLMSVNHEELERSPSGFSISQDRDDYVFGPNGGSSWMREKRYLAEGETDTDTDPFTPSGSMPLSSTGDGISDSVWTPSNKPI
T1 sequence (Q9NR82 whole entry): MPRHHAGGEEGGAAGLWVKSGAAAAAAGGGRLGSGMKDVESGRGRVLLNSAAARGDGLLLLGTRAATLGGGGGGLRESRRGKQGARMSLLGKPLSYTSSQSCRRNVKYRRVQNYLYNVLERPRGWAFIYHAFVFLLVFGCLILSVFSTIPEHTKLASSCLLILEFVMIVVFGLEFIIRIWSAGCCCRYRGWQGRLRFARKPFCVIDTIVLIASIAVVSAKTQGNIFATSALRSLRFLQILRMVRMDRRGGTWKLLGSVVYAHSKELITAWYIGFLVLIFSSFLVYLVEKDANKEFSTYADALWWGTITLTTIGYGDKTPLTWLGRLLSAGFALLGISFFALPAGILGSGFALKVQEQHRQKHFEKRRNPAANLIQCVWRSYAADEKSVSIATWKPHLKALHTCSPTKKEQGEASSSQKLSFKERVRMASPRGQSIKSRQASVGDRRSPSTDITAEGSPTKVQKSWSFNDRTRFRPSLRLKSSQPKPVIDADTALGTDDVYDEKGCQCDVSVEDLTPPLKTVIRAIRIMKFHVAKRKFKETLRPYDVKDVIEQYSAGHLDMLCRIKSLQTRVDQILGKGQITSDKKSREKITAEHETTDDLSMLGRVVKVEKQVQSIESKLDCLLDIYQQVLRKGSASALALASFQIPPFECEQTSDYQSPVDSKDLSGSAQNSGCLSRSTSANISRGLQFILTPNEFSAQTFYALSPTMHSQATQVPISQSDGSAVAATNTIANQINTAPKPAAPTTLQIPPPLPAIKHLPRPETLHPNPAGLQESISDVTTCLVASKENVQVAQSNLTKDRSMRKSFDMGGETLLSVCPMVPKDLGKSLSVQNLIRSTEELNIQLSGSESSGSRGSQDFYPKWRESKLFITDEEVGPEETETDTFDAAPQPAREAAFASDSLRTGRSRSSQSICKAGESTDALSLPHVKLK

hKv7.2/3 = biological target: T2, hKv7.2/3 (Homo sapiens, UniProt O43525+O43526); assay: Kv7.2/7.3 HCS, FLIPR potassium (thallium) assay, CHO/hKv7.2/3; format: cell-based; conditions: read-out: Kv7.2/3 maximal opening vs. control
T2 construct: host or cells: CHO
T2 sequence (O43525 whole entry): as the sequence (O43525 whole entry) above
T2 sequence (O43526 whole entry): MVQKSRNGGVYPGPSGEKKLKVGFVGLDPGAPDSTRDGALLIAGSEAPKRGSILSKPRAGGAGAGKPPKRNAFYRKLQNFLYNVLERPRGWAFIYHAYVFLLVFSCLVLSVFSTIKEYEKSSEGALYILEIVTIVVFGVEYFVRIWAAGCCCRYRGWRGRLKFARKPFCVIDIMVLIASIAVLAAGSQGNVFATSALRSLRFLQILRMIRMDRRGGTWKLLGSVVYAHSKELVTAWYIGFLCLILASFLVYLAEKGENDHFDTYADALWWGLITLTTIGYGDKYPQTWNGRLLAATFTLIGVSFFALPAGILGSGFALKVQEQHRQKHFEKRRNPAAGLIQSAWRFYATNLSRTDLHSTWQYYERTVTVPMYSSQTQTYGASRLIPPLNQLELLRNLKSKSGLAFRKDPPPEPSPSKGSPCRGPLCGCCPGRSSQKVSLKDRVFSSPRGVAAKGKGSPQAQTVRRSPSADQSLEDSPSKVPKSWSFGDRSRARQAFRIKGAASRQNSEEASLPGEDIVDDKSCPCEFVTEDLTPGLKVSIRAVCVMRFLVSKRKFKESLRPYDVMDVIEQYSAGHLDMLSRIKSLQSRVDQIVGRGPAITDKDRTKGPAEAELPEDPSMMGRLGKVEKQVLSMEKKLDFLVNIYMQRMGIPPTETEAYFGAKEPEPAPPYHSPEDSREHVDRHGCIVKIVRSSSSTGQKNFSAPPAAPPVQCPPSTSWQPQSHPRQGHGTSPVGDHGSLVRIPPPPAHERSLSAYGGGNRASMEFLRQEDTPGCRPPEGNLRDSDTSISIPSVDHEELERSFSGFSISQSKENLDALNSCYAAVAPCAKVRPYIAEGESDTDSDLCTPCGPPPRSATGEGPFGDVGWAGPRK
Method: Cell culture: Chinese hamster ovary (CHO) cell-line cells with a constitutive expression of human Kv7.2/3 channels (B'SYS GmbH, Switzerland) were cultured in F-12 nutrient mixture (Biological Industries) supplemented with 10% fetal bovine serum (Biological Industries) and 1% penicillin-streptomycin (Biological Industries) in a humidified 5% CO2 incubator at 37° C. To maintain the stability of human Kv7.2/7.3 expression antibiotic selection was added (Puromycin 5 μg/ml).
High content screen (HCS) using FLIPR Potassium Assay Kit: A FLIPR Potassium Assay Kit (R8222 FLIPR Potassium Assay Explorer Kits, Molecular Devices) was used with the CHO/hKv7.2/3 cell line to screen molecules against the hKv7.2/7.3 ion channel target. The assay exploits the permeability of thallium ions (Tl+) through potassium (K+) channels. In this assay, Tl+ indicator dye is used to produce a bright fluorescent signal upon the binding to Tl+ conducted through the potassium channels. The intensity of the Tl+ signal is proportional to the number of potassium channels in the open state. Therefore, it provides a functional indication of the potassium channel activity. To activate the voltage-gate potassium channels, the cells were stimulated with a mixture of K+ and Tl+ to depolarize the cell membrane. The fluorescence increase in the assay represents the influx of Tl+ into the cell specifically through the potassium channel, providing a functional read-out of hKv7.2/3 activity using a fluorescent plate reader coupled with injectors used to activate the channels.
According to optimization process to achieve uniform and consistent screening conditions the following protocol was established: Cells were seeded in 384-well, black-walled, clear-bottomed Greiner #781091, at a density of 5000 cells per well 24 hours before the assay conductance and incubated overnight in their normal growth medium. On the experiment day the medium was replaced with HBSS, HEPES, and the test compound/vehicle (0.2% DMSO). Dye solution (prepared according to the manufacturer) was added to the plates, which were incubated for 1.5 h light-protected in room temperature. Tecan Spark reader plate injectors were primed with Tl+(1 mM Tl2SO4) or Tl++K+(1 mM Tl2SO4; 5 mM K2SO4) for channel activation and data correction. […] To calculate EC50 values, the data was fitted to sigmoidal regression using Prism GraphPad. The fitting was constrained to a minimum of 1 and a maximal response of about 3.6 unless a different maximal response could be clearly identified.

[3] = test system: KCNQ2-5-type potassium channels; conditions: cited from earlier work
[4] = test system: sodium and calcium channel; conditions: cited from earlier work
hKv7.4 = biological target: T3, hKv7.4 (Homo sapiens, UniProt P56696); conditions: positive control; read-out: Known IC50, Kv7.4; cited from earlier work
T3 construct: expressed in transfected cells; host or cells: CHO
T3 sequence (P56696 whole entry): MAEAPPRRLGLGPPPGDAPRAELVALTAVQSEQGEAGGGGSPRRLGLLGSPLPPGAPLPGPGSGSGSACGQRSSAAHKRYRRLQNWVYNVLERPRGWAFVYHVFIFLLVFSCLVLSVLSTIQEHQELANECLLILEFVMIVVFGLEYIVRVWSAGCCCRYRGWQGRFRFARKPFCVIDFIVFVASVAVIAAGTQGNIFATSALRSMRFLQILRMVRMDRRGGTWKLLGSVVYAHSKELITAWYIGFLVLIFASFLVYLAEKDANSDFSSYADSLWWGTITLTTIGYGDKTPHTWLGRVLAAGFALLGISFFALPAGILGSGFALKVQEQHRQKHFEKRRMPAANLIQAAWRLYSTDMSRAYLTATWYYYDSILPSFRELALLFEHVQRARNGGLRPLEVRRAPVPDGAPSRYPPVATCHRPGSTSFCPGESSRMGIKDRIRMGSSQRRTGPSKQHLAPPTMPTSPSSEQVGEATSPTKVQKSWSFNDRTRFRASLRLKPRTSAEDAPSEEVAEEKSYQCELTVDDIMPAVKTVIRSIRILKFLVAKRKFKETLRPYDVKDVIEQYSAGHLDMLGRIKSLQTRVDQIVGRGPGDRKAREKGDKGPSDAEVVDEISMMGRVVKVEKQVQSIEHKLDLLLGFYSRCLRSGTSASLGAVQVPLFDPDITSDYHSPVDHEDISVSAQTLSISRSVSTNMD

HepG2 cells = conditions: positive control; read-out: Toxicity IC50; cited from earlier work
MIA-OA rats = assay: Dynamic weight bearing in MIA-OA rats; format: in vivo, rat; conditions: 100 mg/kg (naproxen 30 mg/kg), 6 hours post-dose
Method: Monosodium iodoacetate-induced osteoarthritis (MIA-OA): The animals were anaesthetized using an Isoflurane+O2 mixture. Then 50 μl of MIA at a concentration of 60 mg/mL was injected into the right knee joint using a 30 G needle. On study days 13 and 14 following MIA injection, the animals' dynamic weight bearing and response to von Frey filaments were measured.
Dynamic Weight Bearing (DWB): DWB study was performed using the DWB2 apparatus (Bioseb, Paris, France). The rats were placed in a transparent cage containing a matrix comprising around 2000 high-precision force sensors embedded in its floor where they were allowed to move freely. The force sensors measured the weight distribution on each of the four paws of the animal in grams. The animal was filmed from above using a high-definition camera, and the video feed was analyzed in real-time during the test using tracking software, allowing a precise analysis of the animal's posture and hind paws identification. Out of 5 minutes of animal behavior recording, a segment of 2 minutes was analyzed. Once the analysis was completed, the software provided the weight distribution of each hind paw as the main readout and the ratio between the injured and intact hind paws was then calculated.

Question: Which “Increase of core body temperature vs vehicle” value (rats [1]; 6 hours post-dose) does the source give for `CC(C)(C)c1ccc2c(c1)CC[C@H]2NC(=O)Nc1cccc2[nH]ncc12` [ABT102, reference compound] here?
Answer: 1.3 °C

Question: What about the “Increase of core body temperature vs vehicle” value (rats [1]; 10 hours post-dose) of the same compound?
Answer: 0.8 °C

Question: What about the “Heat pain threshold, clinical” value (humans) of the same compound?
Answer: increase heat pain threshold

Question: What about the “Hot plate escape latency” value (rats [2]) of the same compound?
Answer: statistically significant increase in hot plate escape latency

Question: Which “Micronucleus response Absolute MEC” value (CHO-K1 cells) does the source give for `CO[C@@]12[C@H](COC(N)=O)C3=C(C(=O)C(C)=C(N)C3=O)N1C[C@@H]1N[C@@H]12` [Mitomycin C, reference compound] here?
Answer: >16 µM

Question: What about the CC50 at 3 h (In vitro micronucleus) of the same compound?
Answer: > 16 µM

Question: With `CCOC(=O)Nc1ccc(NCc2ccc(F)cc2)cc1N` [Retigabine, N-(2-amino-4-(4-fluorobenzylamino)-phenyl)carbamic acid ethyl ester] as the compound, how does the IC50 (hKv7.3/5) read?
Answer: 1.5 to 5 µM

Question: And the Emax (hKv7.2/3)?
Answer: 220%

Question: What about the “Channel selectivity” value [3] of the same compound?
Answer: highly selective for KCNQ2-5-type potassium channels

Question: And the “Other effects” value [4]?
Answer: sodium and calcium channel blocking activity

Question: What about the IC50 (hKv7.4) of the same compound?
Answer: 1.5 to 5 µM

Question: Which IC50 (HepG2 cells) does the source give for `NS(=O)(=O)OC[C@H]1C[C@@H](Nc2ccnc3cc(-c4cccc(SC(F)(F)F)c4)nn23)[C@H](O)[C@@H]1O` [TAK243] here?
Answer: ~200 nM

Question: Which “Reversal of weight bearing changes” value (MIA-OA rats) does the source give for `COc1ccc2cc([C@H](C)C(=O)O)ccc2c1` [naproxen, reference compound] here?
Answer: comparable reversal of weight bearing changes

— US20260327211A1, “MODULATORS OF A POTASSIUM CHANNEL AND OF TRPV1 CHANNEL AND USES THEREOF” (Bsense Bio Therapeutics Ltd., priority 2023, published 2026)
